Earlier results, collected in patent US20130122091A1, “POLYDEOXYRIBONUCLEOTIDE-BASED COMPOSITIONS AND THEIR METHODS OF USE” (MEDESTEA INTERNAZIONALE SPA, priority 2010, published 2013).

What was measured:
[1] = PDRN-treated survivors, versus 2% of non-PDRN-treated survivors
[2] = tested on: fibroblasts

For polydeoxyribonucleotides [PDRNs], the “Resolution of the serious hepatic veno-occlusive disease” value [1] is given as 42%, the “increase in the number of fibroblasts” value [2] is given as 35% and the “increase in the production of all the dermal matrix components” value [2] is given as 30%.
